The values below are quoted from earlier work in patent US20180235913A1, “AN ORAL PHARMACEUTICAL FORMULATION COMPRISING SUSTAINED-RELEASE GRANULES CONTAINING TAMSULOSIN HYDROCHLORIDE” (HANMI PHARM. CO., LTD., priority 2015, published 2018).

Counter-ions that a name gives are not always drawn.

For this series the following is noted: white crystalline powder.

Turning to `CCOc1ccccc1OCCN[C@H](C)Cc1ccc(OC)c(S(N)(=O)=O)c1` [Tamsulosin hydrochloride], the Water solubility result is “slight water solubility”.
